According to publication PMC11091889, “Silver Organometallics that are Highly Potent Thioredoxin and Glutathione Reductase Inhibitors: Exploring the Correlations of Solution Chemistry with the Strong Antibacterial Effects” (ACS Infectious Diseases, 2024):

Columns and labels:
[1] = Conductometry: molar conductivity of silver complexes in DMSO; assay type: physicochemical; details: 1.0 mM in DMSO, calculated as monocarbene (NHC)AgX
Summary of the method: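 Molar conductivity of each silver complex was measured at 1.0 mM in freshly distilled DMSO (specific conductivity ≤3 × 10^–8 S cm^–1) using an Apera Instruments EC9500 conductivity meter at 25 ± 2 °C. AgNO3 served as the 1:1 electrolyte reference, and readings were taken after dissolution to distinguish neutral monocarbene from ionic biscarbene forms.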

[2] = system: E. coli (DSM1116, ATCC 9637); assay: microbe, parasite or virus in culture; assay type: cell-based, Escherichia coli
Summary of the method: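 Escherichia coli DSM1116 (ATCC 9637) was tested by broth microdilution in 96-well plates in duplicate, with compounds serially diluted from 64 to 1 μg/mL. Inocula of 2–8 × 10^5 CFU/mL were used in MHB (21 g/L Müller Hinton broth, pH 7.4), either alone or supplemented with tryptone (17 g/L) or yeast extract (3 g/L). After 22 h at 37 °C, absorbance at 600 nm was read. MIC and EC50 were obtained by curve fitting in Sigma Plot from three independent experiments, and ciprofloxacin served as the positive control.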

[3] = system: P. aeruginosa PA7 (DSM 24068); assay: microbe, parasite or virus in culture; assay type: cell-based, Pseudomonas aeruginosa; details: n = 3, MHB
Summary of the method: (§1)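 Broth microdilution used 2–8 × 10^5 CFU/mL inocula, with compounds serially diluted 64 to 1 μg/mL and incubated 22 h at 37 °C, read at 600 nm. A. baumannii, K. pneumoniae and P. aeruginosa were grown in MHB pH 7.4; E. faecium was grown in TSY pH 7.0–7.2. MIC and EC50 were obtained by curve fitting from three independent experiments.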

[4] = system: K. pneumoniae (DSM 11678, ATCC33495); assay: Broth microdilution antibacterial assay; assay type: cell-based, Klebsiella pneumoniae; details: n = 3, MHB
Summary of the method: as §1

[5] = system: A. baumannii (DSM 30007, ATCC 19606); assay: Broth microdilution antibacterial assay; assay type: cell-based, Acinetobacter baumannii; details: n = 3, MHB
Summary of the method: as §1

[6] = system: S. aureus MRSA (DSM 11822, ICB 25701); assay: microbe, parasite or virus in culture; assay type: cell-based, methicillin resistant S. aureus; details: n = 3, TSY
Summary of the method: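 Broth microdilution in TSY (30 g/L trypticase soy broth, 3 g/L yeast extract, pH 7.0–7.2), inoculum 2–8 × 10^5 CFU/mL, compounds serially diluted 64 to 1 μg/mL, 22 h at 37 °C. Growth read as absorbance at 600 nm; MIC and EC50 obtained by curve fitting, three independent experiments.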

[7] = system: E. faecium (DSM 20477, ATCC 19434); assay: Broth microdilution antibacterial assay; assay type: cell-based, Enterococcus faecium; details: n = 3, TSY
Summary of the method: as §1

[8] = molecular target: T1, glutathione reductase (GR) from baker's yeast (Saccharomyces cerevisiae, UniProt P41921); assay: GR inhibition assay (DTNB reduction); assay type: biochemical; details: ± standard deviation, n = 3, 75 min preincubation
T1 construct: purchased Sigma-Aldrich
T1 sequence (P41921 17-483 limits assumed): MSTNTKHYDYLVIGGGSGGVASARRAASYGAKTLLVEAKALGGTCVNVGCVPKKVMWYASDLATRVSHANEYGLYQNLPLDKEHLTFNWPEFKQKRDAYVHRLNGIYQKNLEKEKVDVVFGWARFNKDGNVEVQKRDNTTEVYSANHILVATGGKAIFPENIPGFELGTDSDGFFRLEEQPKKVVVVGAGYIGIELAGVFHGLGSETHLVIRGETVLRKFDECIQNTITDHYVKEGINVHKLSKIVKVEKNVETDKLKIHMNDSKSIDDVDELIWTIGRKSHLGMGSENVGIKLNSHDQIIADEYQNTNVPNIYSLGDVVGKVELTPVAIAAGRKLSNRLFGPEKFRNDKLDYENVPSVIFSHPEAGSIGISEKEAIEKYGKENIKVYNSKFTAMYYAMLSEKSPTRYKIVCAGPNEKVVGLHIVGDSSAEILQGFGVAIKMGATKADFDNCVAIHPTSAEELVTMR
Method: (§2) The inhibition of purified E. coli thioredoxin reductase (TrxR) and glutathione reductase (GR) from both E. coli and baker’s yeast was determined according to a previously applied procedure.[59],[60]
(§3) The TrxR (E. coli) and GR (baker’s yeast and E. coli) inhibition assays were performed according to previously published procedures.[62],[75] The assays are partly based on the procedure developed by Lu et al.[60] and make use of the reduction of 5,5′-dithiobis(2-nitrobenzoic acid) (DTNB). Solutions of E. coli TrxR (35.4 U/mL) and E. coli thioredoxin (Trx) (156 μg/mL) (both purchased from Sigma-Aldrich) or baker’s yeast GR (0,08 U/mL, Sigma-Aldrich) or E. coli GR (4.2 U/ml, Antibodies online) and GSSG (0.28 mM, Sigma-Aldrich) in distilled water were prepared, as were fresh 2 mM stock solutions of the test compounds in DMSO. Then, solutions with several concentrations of the test compounds in DMSO were prepared, and 35 μL of each solution was diluted with 965 μL of TE buffer (Tris–HCl 50 mM, EDTA 1 mM, pH 7.5). These solutions (20 μL) or TE buffer without the test compounds (20 μL, as control) were mixed with the TrxR or GR solutions (10 μL), the Trx or GSSG solutions (10 μL), and a solution of NADPH (200 μM) in TE buffer (100 μL) in a well on a 96-well plate. As a blank solution, 200 μM NADPH in TE buffer (100 μL) mixed with a DMSO/buffer mixture (40 μL) was used (final concentrations of DMSO: 0.5% v/v). The plate was incubated for 75 min at 25 °C with moderate shaking. After incubation, 100 μL of a reaction mixture (TE buffer containing 200 μM NADPH and 5 mM DTNB) was added to each well to initiate the reaction. After thorough mixing, the formation of 5-TNB was monitored by a microplate reader at 405 nm in 35 s intervals (10 measurements). The values were corrected by subtraction of the blank solution absorption values. The increase in the concentration of 5-TNB followed a linear trend (r^2 ≥ 0.990), and the enzymatic activities were calculated as the gradients (increase in absorbance per second) thereof. […] The inhibition is presented as the mean IC50 values and standard deviations obtained in three independent experiments.

[9] = molecular target: T2, glutathione reductase (GR) from E. coli (Escherichia coli, UniProt P06715); assay: GR inhibition assay (DTNB reduction); assay type: biochemical; details: ± standard deviation, n = 3, 75 min preincubation
T2 construct: purchased Antibodies online
T2 sequence (P06715 1-450): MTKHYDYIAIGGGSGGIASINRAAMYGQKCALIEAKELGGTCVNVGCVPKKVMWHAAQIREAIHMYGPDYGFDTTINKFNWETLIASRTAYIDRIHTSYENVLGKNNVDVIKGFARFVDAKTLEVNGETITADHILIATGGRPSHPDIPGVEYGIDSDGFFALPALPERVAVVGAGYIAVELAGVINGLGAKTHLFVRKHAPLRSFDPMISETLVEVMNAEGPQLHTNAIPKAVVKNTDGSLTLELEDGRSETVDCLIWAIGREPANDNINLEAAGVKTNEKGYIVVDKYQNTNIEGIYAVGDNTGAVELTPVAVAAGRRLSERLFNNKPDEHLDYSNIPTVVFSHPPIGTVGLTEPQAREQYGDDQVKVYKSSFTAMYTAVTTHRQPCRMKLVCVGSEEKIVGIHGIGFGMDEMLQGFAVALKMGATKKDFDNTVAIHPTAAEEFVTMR
Method: as §2, §3

[10] = molecular target: E. coli thioredoxin reductase (TrxR) (Escherichia coli, UniProt P0A9P4); details: read-out: IC50 TrxR from E. coli; ± standard deviation, n = 3, 75 min preincubation
E. coli thioredoxin reductase (TrxR), sequence (P0A9P4 whole entry): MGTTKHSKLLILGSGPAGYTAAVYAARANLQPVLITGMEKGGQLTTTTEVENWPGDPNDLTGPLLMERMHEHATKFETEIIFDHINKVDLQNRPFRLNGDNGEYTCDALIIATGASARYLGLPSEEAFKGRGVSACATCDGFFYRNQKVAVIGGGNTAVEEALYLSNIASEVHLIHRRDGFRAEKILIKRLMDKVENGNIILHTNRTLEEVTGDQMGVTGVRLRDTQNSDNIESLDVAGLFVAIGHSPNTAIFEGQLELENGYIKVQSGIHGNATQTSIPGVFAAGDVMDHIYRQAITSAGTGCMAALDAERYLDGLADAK
Method: as §2, §3

O=[N+]([O-])[O-].[Ag+] [AgNO3, Silver nitrate, reference compound]
Molar conductivity ΛM ([1]; 1 h after dissolution): 37.8 S cm^2 mol^–^1 | Molar conductivity ΛM ([1]; 24 h after dissolution): 38.1 S cm^2 mol^–^1 | MIC E. coli DSM 1116 in MHB + tryptone ([2]; Müller-Hinton Broth with tryptone (17 g/L), ± SE): 251.1 ± 62.8 µM | MIC E. coli DSM 1116 in MHB + yeast extract ([2]; Müller-Hinton Broth with yeast extract (3 g/L), ± SE): 123.6 ± 29.4 µM | MIC E. coli DSM 1116 in MHB ([2]; Müller-Hinton Broth without additive, ± SE): 5.89 ± 0.0 µM | EC50 ([2]; mean ± standard error, n = 3, MHB): 4.87 ± 0.1 µM | MIC E. coli ([2]; mean ± standard error, n = 3, MHB, 22 h): 5.9 ± 0.0 µM | MIC E. coli (value in brackets) ([2]; n = 3, MHB, 22 h): 1 µg/mL | MIC P. aeruginosa ([3]; mean ± standard error, 22 h): 5.9 ± 0.0 µM | EC50 ([3]; mean ± standard error, read-out: EC50 P. aeruginosa): 4.12 ± 0.4 µM | MIC P. aeruginosa (value in brackets) ([3]; 22 h): 1 µg/mL | MIC K. pneumoniae ([4]; mean ± standard error, 22 h): 5.9 ± 0.0 µM | EC50 ([4]; mean ± standard error, read-out: EC50 K. pneumoniae): 4.41 ± 0.5 µM | MIC K. pneumoniae (value in brackets) ([4]; 22 h): 1 µg/mL | MIC A. baumannii ([5]; mean ± standard error, 22 h): 5.9 ± 0.0 µM | EC50 ([5]; mean ± standard error, read-out: EC50 A. baumannii): 4.16 ± 0.4 µM | MIC A. baumannii (value in brackets) ([5]; 22 h): 1 µg/mL | MIC MRSA ([6]; mean ± standard error, 22 h): 188 ± 0.0 µM | EC50 ([6]; mean ± standard error, read-out: EC50 MRSA): 98.9 ± 6.4 µM | MIC MRSA (value in brackets) ([6]; 22 h): 32 µg/mL | MIC E. faecium ([7]; mean ± standard error, 22 h): 94.1 ± 0.0 µM | EC50 ([7]; mean ± standard error, read-out: EC50 E. faecium): 75.9 ± 5.7 µM | MIC E. faecium (value in brackets) ([7]; 22 h): 16 µg/mL | IC50 [8]: 0.033 ± 0.003 µM | IC50 [9]: 0.031 ± 0.001 µM | IC50 [10]: 0.054 ± 0.005 µM
